Experimental data as given in patent US9169254B2, “Spiroimidazolone derivative” (Chugai Seiyaku Kabushiki Kaisha, priority 2009, dated 2015).
Counter-ions that a name gives are not always drawn.

Biological target: T1, human PTH1 receptor (Homo sapiens, UniProt Q03431)
T1 sequence (Q03431 27-593): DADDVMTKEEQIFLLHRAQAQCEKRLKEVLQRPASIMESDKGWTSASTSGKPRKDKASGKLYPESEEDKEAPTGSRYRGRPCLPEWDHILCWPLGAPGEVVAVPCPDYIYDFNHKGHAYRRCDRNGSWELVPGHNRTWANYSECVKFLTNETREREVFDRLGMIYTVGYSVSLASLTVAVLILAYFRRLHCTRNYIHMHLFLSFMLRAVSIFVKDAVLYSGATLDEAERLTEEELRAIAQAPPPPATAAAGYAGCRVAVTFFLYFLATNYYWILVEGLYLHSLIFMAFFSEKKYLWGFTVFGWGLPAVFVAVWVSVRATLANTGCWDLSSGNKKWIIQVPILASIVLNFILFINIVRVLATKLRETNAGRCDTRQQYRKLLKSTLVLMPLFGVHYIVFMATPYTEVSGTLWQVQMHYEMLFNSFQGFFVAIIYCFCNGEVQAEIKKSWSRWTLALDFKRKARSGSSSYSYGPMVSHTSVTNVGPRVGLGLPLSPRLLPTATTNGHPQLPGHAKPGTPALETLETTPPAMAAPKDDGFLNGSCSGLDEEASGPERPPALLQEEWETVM
Experiment: In vitro cAMP signal activity in HKRK-B7 cells (LLC-PK1 cells overexpressing the human PTH1 receptor)
Assay type: cell-based
Details: HKRK-B7 cells, compound at 1×10^−3 M

[1] = cAMP produced as percentage of that produced by hPTH(1-34) at 100 nM

| SMILES | cAMP production activity (%) [1] [%] | cAMP production activity (%) ([…], 0.1 µM) |
| --- | --- | --- |
| [2H]C([2H])([2H])C([2H])([2H])C1=CC[C@H](C2=NC3(CCN([S@TB18](=O)(=O)CCc4c(C)cc(N(C)C(N)=O)cc4C)CC3)C(=O)N2)CC1 [Compound 1149, 1-(4-{2-[2-(4-[1,1,2,2,2-^2H5]ethyl-cyclohex-3-enyl)-4-oxo-1,3,8-triaza-spiro[4.5]dec-1-ene-8-sulfonyl]-ethyl}-3,5-dimethyl-phenyl)-1-methyl-urea] | 98 |  |
| Cc1cc(C(=O)N(C)C)ccc1/C=C/S(=O)(=O)N1CCC2(CC1)N=C(c1cccc(OC(F)(F)F)c1)NC2=O [Compound 231, 3,N,N-trimethyl-4-{(E)-2-[4-oxo-2-(3-trifluoromethoxy-phenyl)-1,3,8-triaza-spiro[4.5]dec-1-ene-8-sulfonyl]-vinyl}-benzamide] | 96 |  |
| Cc1cc(N2C(=O)CN(C)C2=O)cc(C)c1/C=C/S(=O)(=O)N1CCC2(CC1)N=C(C1CCC(CCC(F)(F)F)CC1)NC2=O (centres unmarked) [Compound 548, 3-[3,5-dimethyl-4-((E)-2-{4-oxo-2-[4-(3,3,3-trifluoro-propyl)-cyclohexyl]-1,3,8-triaza-spiro[4.5]dec-1-ene-8-sulfonyl}-vinyl)-phenyl]-1-methyl-imidazolidine-2,4-dione] | 88 |  |
| Cc1cc(N(C)C(N)=O)cc(C)c1CCS(=O)(=O)N1CCC2(CC1)N=C(C1CCCCCC1)NC2=O [Compound 934, 1-{4-[2-(2-Cycloheptyl-4-oxo-1,3,8-triaza-spiro[4.5]dec-1-ene-8-sulfonyl)-ethyl]-3,5-dimethyl-phenyl}-1-methyl-urea] | 87 |  |
| Cc1cc(CCS(=O)(=O)N2CCC3(CC2)N=C(c2cccc(OC(F)(F)F)c2)NC3=O)cc(C)c1OCCC(O)CO (centres unmarked) [Compound 855, 8-{2-[4-(3,4-dihydroxy-butoxy)-3,5-dimethyl-phenyl]-ethanesulfonyl}-2-(3-trifluoromethoxy-phenyl)-1,3,8-triaza-spiro[4.5]dec-1-en-4-one] | 82 |  |
| CCCCCCCCCC1=NC2(CCN(S(=O)(=O)/C=C/c3c(C)cc(C(=O)O)cc3C)CC2)C(=O)N1 [Compound 628, 3,5-dimethyl-4-[(E)-2-(2-nonyl-4-oxo-1,3,8-triaza-spiro[4.5]dec-1-ene-8-sulfonyl)-vinyl]-benzoic acid] | 48 |  |
| Cc1cc(S(=O)(=O)NC(CO)(CO)CO)ccc1CCS(=O)(=O)N1CCC2(CC1)N=C(c1cccc(C(F)(F)F)c1)NC2=O [Compound 854, N-(2-hydroxy-1,1-bis-hydroxymethyl-ethyl)-3-methyl-4-{2-[4-oxo-2-(3-trifluoromethyl-phenyl)-1,3,8-triaza-spiro[4.5]dec-1-ene-8-sulfonyl]-ethyl}-benzenesulfonamide] | 80 |  |
| Cc1cc(CNC(=O)OC(C)(C)C)ccc1CCS(=O)(=O)N1CCC2(CC1)N=C(C1CCC(CCC(F)(F)F)CC1)NC2=O (centres unmarked) [Compound 928, [3-Methyl-4-(2-{4-oxo-2-[4-(3,3,3-trifluoro-propyl)-cyclohexyl]-1,3,8-triaza-spiro[4.5]dec-1-ene-8-sulfonyl}-ethyl)-benzyl]-carbamic acid tert-butyl ester] | 51 |  |
| Cc1cc(C(=O)N2CC[C@H](N(C)C)C2)ccc1CCS(=O)(=O)N1CCC2(CC1)N=C(c1cccc(C(F)(F)F)c1)NC2=O [Compound 372, 8-{2-[4-((S)-3-dimethylamino-pyrrolidine-1-carbonyl)-2-methyl-phenyl]-ethanesulfonyl}-2-(3-trifluoromethyl-phenyl)-1,3,8-triaza-spiro[4.5]dec-1-en-4-one] | 51 |  |
| CC(=O)N(CCO)c1ccc(CCS(=O)(=O)N2CCC3(CC2)N=C(c2cccc(OC(F)(F)F)c2)NC3=O)c(C)c1 [Compound 149, N-(2-Hydroxy-ethyl)-N-(3-methyl-4-{2-[4-oxo-2-(3-trifluoromethoxy-phenyl)-1,3,8-triaza-spiro[4.5]dec-1-ene-8-sulfonyl]-ethyl}-phenyl)-acetamide] | 56 |  |
| Cc1ccc(OCCC(O)CO)cc1CCS(=O)(=O)N1CCC2(CC1)N=C(c1cccc(OC(F)(F)F)c1)NC2=O (centres unmarked) [Compound 267, 8-{2-[5-(3,4-dihydroxy-butoxy)-2-methyl-phenyl]-ethanesulfonyl}-2-(3-trifluoromethoxy-phenyl)-1,3,8-triaza-spiro[4.5]dec-1-en-4-one] | 42 |  |
| Cc1cc(OC[C@H](O)CO)cc(C)c1/C=C/S(=O)(=O)N1CCC2(CC1)N=C(c1ccc3c(c1)OC(F)(F)O3)NC2=O [Compound 1165, 2-(2,2-difluoro-benzo[1,3]dioxol-5-yl)-8-{(E)-2-[4-((R)-2,3-dihydroxy-propoxy)-2,6-dimethyl-phenyl]-ethenesulfonyl}-1,3,8-triaza-spiro[4.5]dec-1-en-4-one] | 4.3 |  |
| O=C(Cn1ccc2c(/C=C/S(=O)(=O)N3CCC4(CC3)N=C(C3CCCCC3)NC4=O)cccc21)Nc1ccncc1 [Compound 736, 2-{4-[(E)-2-(2-Cyclohexyl-4-oxo-1,3,8-triaza-spiro[4.5]dec-1-ene-8-sulfonyl)-vinyl]-indol-1-yl}-N-pyridin-4-yl-acetamide] |  | 16 |
| Cc1cccc(CCCS(=O)(=O)N2CCC3(CC2)N=C(C2CCCCC2)NC3=O)c1 [Compound 316, 2-cyclohexyl-8-(3-m-tolyl-propane-1-sulfonyl)-1,3,8-triaza-spiro[4.5]dec-1-en-4-one] | 20 |  |
| CCCCCCCCCC1=NC2(CCN(S(=O)(=O)CCc3c(C)cc(C(=O)N4CCN(C)CC4)cc3C)CC2)C(=O)N1 [Compound 986, 8-{2-[2,6-dimethyl-4-(4-methyl-piperazine-1-carbonyl)-phenyl]-ethanesulfonyl}-2-nonyl-1,3,8-triaza-spiro[4.5]dec-1-en-4-one] | 96 |  |
| Cc1cc(C(=O)N2CCN(CCCO)CC2)ccc1CCS(=O)(=O)N1CCC2(CC1)N=C(c1cccc(C(F)(F)F)c1)NC2=O [Compound 366, 8-(2-{4-[4-(3-hydroxy-propyl)-piperazine-1-carbonyl]-2-methyl-phenyl}-ethanesulfonyl)-2-(3-trifluoromethyl-phenyl)-1,3,8-triaza-spiro[4.5]dec-1-en-4-one] | 85 |  |
| Cc1cc(C(=O)N2CCC(N)C2)ccc1CCS(=O)(=O)N1CCC2(CC1)N=C(c1cccc(C(F)(F)F)c1)NC2=O (centres unmarked) [Compound 445, 8-{2-[4-(3-amino-pyrrolidine-1-carbonyl)-2-methyl-phenyl]-ethanesulfonyl}-2-(3-trifluoromethyl-phenyl)-1,3,8-triaza-spiro[4.5]dec-1-en-4-one hydrochloride] | 83 |  |
| Cc1cc(N2C(=O)CN(C)C2=O)ccc1/C=C/S(=O)(=O)N1CCC2(CC1)N=C(C1CCC(C)CC1)NC2=O (centres unmarked) [Compound 505, 1-methyl-3-(3-methyl-4-{(E)-2-[2-(4-methyl-cyclohexyl)-4-oxo-1,3,8-triaza-spiro[4.5]dec-1-ene-8-sulfonyl]-vinyl}-phenyl)-imidazolidine-2,4-dione] | 61 |  |
| Cc1cc(C(=O)N(C)C)cc(C)c1/C=C/S(=O)(=O)N1CCC2(CC1)N=C(C1CCC(CCC(F)(F)F)CC1)NC2=O (centres unmarked) [Compound 994, 3,5,N,N-tetramethyl-4-((E)-2-{4-oxo-2-[4-(3,3,3-trifluoro-propyl)-cyclohexyl]-1,3,8-triaza-spiro[4.5]dec-1-ene-8-sulfonyl}-vinyl)-benzamide] | 87 |  |
| O=C1NC(CC2CCCCC2)=NC12CCN(S(=O)(=O)c1cccc(Cl)c1)CC2 [Compound 28, 8-(3-chloro-benzenesulfonyl)-2-cyclohexylmethyl-1,3,8-triaza-spiro[4.5]dec-1-en-4-one] | 31 |  |
| Cc1cc(C2=NC3(CCN(S(=O)(=O)CCc4c(C)cc(C(=O)N5CCC(O)(CF)CC5)cc4C)CC3)C(=O)N2)ccc1C(F)(F)F [Compound 1277, 8-{2-[4-(4-fluoromethyl-4-hydroxy-piperidine-1-carbonyl)-2,6-dimethyl-phenyl]-ethanesulfonyl}-2-(3-methyl-4-trifluoromethyl-phenyl)-1,3,8-triaza-spiro[4.5]dec-1-en-4-one] | 95 |  |
| N#Cc1c[nH]c2cccc(CCS(=O)(=O)N3CCC4(CC3)N=C(C3CCCCC3)NC4=O)c12 [Compound 646, 4-[2-(2-cyclohexyl-4-oxo-1,3,8-triaza-spiro[4.5]dec-1-ene-8-sulfonyl)-ethyl]-1H-indole-3-carbonitrile] | 99 |  |
| CCC1CCC(C2=NC3(CCN(S(=O)(=O)CCc4ccc(NC(C)=O)c(Cl)c4C)CC3)C(=O)N2)CC1 (centres unmarked) [Compound 954, N-(2-chloro-4-{2-[2-(4-ethyl-cyclohexyl)-4-oxo-1,3,8-triaza-spiro[4.5]dec-1-ene-8-sulfonyl]-ethyl}-3-methyl-phenyl)-acetamide] | 81 |  |
